According to patent US9452986B2, “6-heteroaryloxy- or 6-aryloxy-quinoline-2-carboxamides and method of use” (AbbVie Inc., priority 2014, dated 2016):

These molecules were tested against recombinant human Nav1.7 (Homo sapiens (Human), UniProt Q15858) (assay: FRET-based membrane potential assay, recombinant human sodium channel Nav1.7). Settings: HEK293 cells stably expressing recombinant human Nav1.7; veratridine + scorpion venom depolarization; read-out: FRET-Membrane Potential Nav1.7 IC50.
Type: cell-based
Outline: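 Channel activation used veratridine at its EC80, set by a dilution curve each experiment, together with Leiurus scorpion venom, added 3 min after compound. Membrane-potential ratio signals from FLIPR Tetra in HEPES-buffered HBSS were fitted to a four-parameter Hill equation for percent inhibition and IC50.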

recombinant human Nav1.7, sequence (Q15858 whole entry): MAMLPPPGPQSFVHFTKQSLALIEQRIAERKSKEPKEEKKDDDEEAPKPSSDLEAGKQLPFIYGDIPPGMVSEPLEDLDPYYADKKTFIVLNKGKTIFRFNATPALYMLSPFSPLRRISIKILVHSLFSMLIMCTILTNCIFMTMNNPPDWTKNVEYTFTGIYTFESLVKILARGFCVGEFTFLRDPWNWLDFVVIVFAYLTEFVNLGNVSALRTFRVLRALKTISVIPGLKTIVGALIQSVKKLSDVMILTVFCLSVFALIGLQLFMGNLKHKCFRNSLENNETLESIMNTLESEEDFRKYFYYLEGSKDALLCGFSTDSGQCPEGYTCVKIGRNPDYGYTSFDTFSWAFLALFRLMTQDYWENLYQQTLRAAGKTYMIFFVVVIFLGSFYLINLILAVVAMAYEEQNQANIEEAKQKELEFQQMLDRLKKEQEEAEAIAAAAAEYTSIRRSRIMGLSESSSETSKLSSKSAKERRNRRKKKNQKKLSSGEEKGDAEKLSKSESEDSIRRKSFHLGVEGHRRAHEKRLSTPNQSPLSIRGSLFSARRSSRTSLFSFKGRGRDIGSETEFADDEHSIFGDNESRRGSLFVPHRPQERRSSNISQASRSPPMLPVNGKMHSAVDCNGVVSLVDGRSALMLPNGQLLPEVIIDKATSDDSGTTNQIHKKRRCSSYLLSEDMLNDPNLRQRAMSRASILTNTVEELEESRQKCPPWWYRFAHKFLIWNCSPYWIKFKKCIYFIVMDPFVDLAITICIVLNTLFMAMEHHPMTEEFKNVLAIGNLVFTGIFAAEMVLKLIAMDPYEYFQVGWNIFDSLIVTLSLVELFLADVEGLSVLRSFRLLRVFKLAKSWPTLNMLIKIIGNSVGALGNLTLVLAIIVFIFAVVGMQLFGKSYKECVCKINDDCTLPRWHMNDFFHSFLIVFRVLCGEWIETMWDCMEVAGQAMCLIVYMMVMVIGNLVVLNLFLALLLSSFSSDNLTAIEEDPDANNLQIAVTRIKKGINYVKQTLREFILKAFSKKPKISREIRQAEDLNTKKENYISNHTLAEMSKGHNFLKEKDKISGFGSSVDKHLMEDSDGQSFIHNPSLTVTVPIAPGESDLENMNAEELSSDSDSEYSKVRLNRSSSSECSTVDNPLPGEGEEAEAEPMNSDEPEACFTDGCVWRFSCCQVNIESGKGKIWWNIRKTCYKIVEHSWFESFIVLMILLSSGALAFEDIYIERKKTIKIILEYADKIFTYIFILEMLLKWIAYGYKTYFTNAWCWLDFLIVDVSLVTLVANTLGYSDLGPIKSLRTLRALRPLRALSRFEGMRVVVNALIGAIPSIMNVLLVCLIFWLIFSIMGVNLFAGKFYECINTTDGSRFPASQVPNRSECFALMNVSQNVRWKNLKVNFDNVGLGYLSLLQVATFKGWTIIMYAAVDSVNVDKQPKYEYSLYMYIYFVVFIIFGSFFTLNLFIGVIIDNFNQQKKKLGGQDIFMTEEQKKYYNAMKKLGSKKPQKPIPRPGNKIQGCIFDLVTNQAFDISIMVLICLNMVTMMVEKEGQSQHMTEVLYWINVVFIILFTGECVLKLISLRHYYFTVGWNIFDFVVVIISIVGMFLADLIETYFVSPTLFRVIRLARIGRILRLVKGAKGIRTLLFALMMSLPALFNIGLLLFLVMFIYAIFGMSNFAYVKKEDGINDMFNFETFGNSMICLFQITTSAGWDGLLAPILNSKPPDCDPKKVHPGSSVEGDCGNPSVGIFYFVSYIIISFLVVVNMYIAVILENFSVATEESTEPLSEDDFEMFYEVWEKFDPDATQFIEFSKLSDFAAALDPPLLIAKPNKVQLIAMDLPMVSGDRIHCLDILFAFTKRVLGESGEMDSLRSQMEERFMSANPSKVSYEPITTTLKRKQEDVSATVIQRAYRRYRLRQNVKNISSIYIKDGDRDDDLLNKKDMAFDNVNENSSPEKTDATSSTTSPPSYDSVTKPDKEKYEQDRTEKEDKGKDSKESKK

`O=C(NC1C[S+]([O-])C1)c1ccc2cc(Oc3ccc(C(F)(F)F)cn3)ccc2n1` (centres unmarked) [Example 503, N-(1-oxidothietan-3-yl)-6-{[5-(trifluoromethyl)pyridin-2-yl]oxy}quinoline-2-carboxamide] and `O=C(NC1CS(=O)(=O)C1)c1ccc2cc(Oc3ccc(C(F)(F)F)cn3)ccc2n1` [Example 504, N-(1,1-dioxidothietan-3-yl)-6-{[5-(trifluoromethyl)pyridin-2-yl]oxy}quinoline-2-carboxamide] are within 1.5-fold of each other in IC50: 586 nM for the first, 593 nM for the second.

Compared with `CC(=O)C1CN(C(=O)c2ccc3cc(Oc4ccc(C(F)(F)F)cn4)ccc3n2)C1` [Example 506, 1-{1-[(6-{[5-(trifluoromethyl)pyridin-2-yl]oxy}quinolin-2-yl)carbonyl]azetidin-3-yl}ethanone], `O=C(c1ccc2cc(Oc3ccc(C(F)(F)F)cn3)ccc2n1)N1CC(F)C1` [Example 507, (3-fluoroazetidin-1-yl)(6-{[5-(trifluoromethyl)pyridin-2-yl]oxy}quinolin-2-yl)methanone] is 2.8-fold higher in IC50: 781 nM for the first, 2180 nM for the second.

`O=C(c1ccc2cc(Oc3ccc(C(F)(F)F)cn3)ccc2n1)N1CC(F)(F)C1` [Example 508, (3,3-difluoroazetidin-1-yl)(6-{[5-(trifluoromethyl)pyridin-2-yl]oxy}quinolin-2-yl)methanone] and `O=C(c1ccc2cc(Oc3ccc(C(F)(F)F)cn3)ccc2n1)N1CC2(CCOC2)C1` [Example 532, 6-oxa-2-azaspiro[3.4]oct-2-yl(6-{[5-(trifluoromethyl)pyridin-2-yl]oxy}quinolin-2-yl)methanone] are within 1.5-fold of each other in IC50: 3650 nM for the first, 2770 nM for the second.

First: CN(C)C(=O)[C@@H]1C[C@@H](F)CN1C(=O)c1ccc2cc(Oc3ccc(C(F)(F)F)cn3)ccc2n1 [Example 509, (4R)-4-fluoro-N,N-dimethyl-1-[(6-{[5-(trifluoromethyl)pyridin-2-yl]oxy}quinolin-2-yl)carbonyl]-L-prolinamide]
Second: O=C(N[C@@H]1CCOC1=O)c1ccc2cc(Oc3ccc(C(F)(F)F)cn3)ccc2n1 [Example 530, N-[(3R)-2-oxotetrahydrofuran-3-yl]-6-{[5-(trifluoromethyl)pyridin-2-yl]oxy}quinoline-2-carboxamide]
The IC50 of the first is 2.9-fold higher: 2640 nM for the first, 911 nM for the second. The second is the more potent here.

First: O=C(c1ccc2cc(Oc3ccc(C(F)(F)F)cn3)ccc2n1)N1CCN(Cc2ncco2)CC1 [Example 510, [4-(1,3-oxazol-2-ylmethyl)piperazin-1-yl](6-{[5-(trifluoromethyl)pyridin-2-yl]oxy}quinolin-2-yl)methanone]
Second: Cc1nc(CN2CCN(C(=O)c3ccc4cc(Oc5ccc(C(F)(F)F)cn5)ccc4n3)CC2)co1 [Example 531, {4-[(2-methyl-1,3-oxazol-4-yl)methyl]piperazin-1-yl}(6-{[5-(trifluoromethyl)pyridin-2-yl]oxy}quinolin-2-yl)methanone]
The IC50 of the first is 2-fold higher: 7290 nM for the first, 3570 nM for the second.

First: O=C(NC1CCC(F)(F)CC1)c1ccc2cc(Oc3ccc(C(F)(F)F)nc3)ccc2n1 [Example 511, N-(4,4-difluorocyclohexyl)-6-{[6-(trifluoromethyl)pyridin-3-yl]oxy}quinoline-2-carboxamide]
Second: CN1CC(NC(=O)c2ccc3cc(Oc4ccc(C(F)(F)F)nc4)ccc3n2)CC1=O (centres unmarked) [Example 519, N-(1-methyl-5-oxopyrrolidin-3-yl)-6-{[6-(trifluoromethyl)pyridin-3-yl]oxy}quinoline-2-carboxamide]
The IC50 of the first is 1.7-fold higher: 1980 nM for the first, 1160 nM for the second.

Going from `COCCNC(=O)CN(C)C(=O)c1ccc2cc(Oc3ccc(C(F)(F)F)nc3)ccc2n1` [Example 514, N-{2-[(2-methoxyethyl)amino]-2-oxoethyl}-N-methyl-6-{[6-(trifluoromethyl)pyridin-3-yl]oxy}quinoline-2-carboxamide] to `CC(C)NC(=O)CN(C)C(=O)c1ccc2cc(Oc3ccc(C(F)(F)F)nc3)ccc2n1` [Example 525, N-[2-(isopropylamino)-2-oxoethyl]-N-methyl-6-{[6-(trifluoromethyl)pyridin-3-yl]oxy}quinoline-2-carboxamide], the IC50 falls from 12900 nM to 6650 nM (1.9-fold).

Going from `O=C(NCCC(=O)N1CCOCC1)c1ccc2cc(Oc3ccc(C(F)(F)F)nc3)ccc2n1` [Example 515, N-[3-(morpholin-4-yl)-3-oxopropyl]-6-{[6-(trifluoromethyl)pyridin-3-yl]oxy}quinoline-2-carboxamide] to `O=C(NCCC(=O)N1CCCC1)c1ccc2cc(Oc3ccc(C(F)(F)F)nc3)ccc2n1` [Example 516, N-[3-oxo-3-(pyrrolidin-1-yl)propyl]-6-{[6-(trifluoromethyl)pyridin-3-yl]oxy}quinoline-2-carboxamide], the IC50 falls from 4250 nM to 2000 nM (2.1-fold).

Going from `CCN(CC)C(=O)CNC(=O)c1ccc2cc(Oc3ccc(C(F)(F)F)nc3)ccc2n1` [Example 517, N-[2-(diethylamino)-2-oxoethyl]-6-{[6-(trifluoromethyl)pyridin-3-yl]oxy}quinoline-2-carboxamide] to `CCN(CC)C(=O)CCNC(=O)c1ccc2cc(Oc3ccc(C(F)(F)F)nc3)ccc2n1` [Example 524, N-[3-(diethylamino)-3-oxopropyl]-6-{[6-(trifluoromethyl)pyridin-3-yl]oxy}quinoline-2-carboxamide], the IC50 rises from 370 nM to 1080 nM (2.9-fold).

`O=C(NCC(=O)N1CCCCC1)c1ccc2cc(Oc3ccc(C(F)(F)F)nc3)ccc2n1` [Example 518, N-[2-oxo-2-(piperidin-1-yl)ethyl]-6-{[6-(trifluoromethyl)pyridin-3-yl]oxy}quinoline-2-carboxamide] and `O=C(NCCC(=O)N1CCCCC1)c1ccc2cc(Oc3ccc(C(F)(F)F)nc3)ccc2n1` [Example 520, N-[3-oxo-3-(piperidin-1-yl)propyl]-6-{[6-(trifluoromethyl)pyridin-3-yl]oxy}quinoline-2-carboxamide] are within 1.5-fold of each other in IC50: 998 nM for the first, 945 nM for the second.

Going from `CCN1CC(NC(=O)c2ccc3cc(Oc4ccc(C(F)(F)F)nc4)ccc3n2)CC1=O` (centres unmarked) [Example 523, N-(1-ethyl-5-oxopyrrolidin-3-yl)-6-{[6-(trifluoromethyl)pyridin-3-yl]oxy}quinoline-2-carboxamide] to `N[C@@H]1[C@H]2CN(C(=O)c3ccc4cc(Oc5ccc(C(F)(F)F)nc5)ccc4n3)C[C@@H]12` [Example 528, meso-[(1R,5S,6s)-6-amino-3-azabicyclo[3.1.0]hex-3-yl](6-{[6-(trifluoromethyl)pyridin-3-yl]oxy}quinolin-2-yl)methanone], the IC50 rises from 356 nM to 2920 nM (8.2-fold).

`O=C(c1ccc2cc(Oc3ccc(C(F)(F)F)nc3)ccc2n1)N1CCC(N2CCOCC2)CC1` [Example 526, [4-(morpholin-4-yl)piperidin-1-yl](6-{[6-(trifluoromethyl)pyridin-3-yl]oxy}quinolin-2-yl)methanone] was tested, and the IC50 was 3090 nM.

Same assay, conditions: read-out: FRET-Membrane Potential Nav1.7 IC50

Compared with `O=C(NCC(=O)N1CCCC1)c1ccc2cc(Oc3ccc(C(F)(F)F)nc3)ccc2n1` [Example 513, N-[2-oxo-2-(pyrrolidin-1-yl)ethyl]-6-{[6-(trifluoromethyl)pyridin-3-yl]oxy}quinoline-2-carboxamide], `CN(CC(=O)NC1CC1)C(=O)c1ccc2cc(Oc3ccc(C(F)(F)F)nc3)ccc2n1` [Example 522, N-[2-(cyclopropylamino)-2-oxoethyl]-N-methyl-6-{[6-(trifluoromethyl)pyridin-3-yl]oxy}quinoline-2-carboxamide] is 12-fold higher in IC50: 911 nM for the first, 10700 nM for the second.

With `CNC(=O)c1ccc2cc(Oc3ccc(C(F)(F)F)cn3)ccc2n1` [Example 527, N-methyl-6-{[5-(trifluoromethyl)pyridin-2-yl]oxy}quinoline-2-carboxamide] the IC50 was 5910 nM.
